Measured values: patent US12668600B2 (Kumquat Biosciences Inc., priority 2023, dated 2026)

Experiments:
Type in all cases: biochemical
KRAS G12V = target: T1, KRAS G12V (Homo sapiens, UniProt P01116, G12V); test: HTRF KRAS-SOS1 interaction assay, KRAS G12V; settings: binned ≤2 μM / >2 μM, read-out: Inhibition of KRAS G12V (IC50)
T1 construct: made in house; host or cells: E. coli, e.g. BL21 (DE3)
Description: (§1) This assay can be also used to assess a selective inhibition or reduction of signaling output of a mutant Ras protein relative to a wildtype, or relative to a different mutant Ras protein. For example, the equilibrium interaction of wildtype KRAS or K-Ras mutant (e.g., wildtype or a mutant thereof) with SOS1 (e.g., hSOS1) can be assessed as a proxy or an indication for the ability of a subject compound to bind and inhibit Ras protein. The HTRF assay detects from (i) a fluorescence resonance energy transfer (FRET) donor (e.g., antiGST-Europium) that is bound to GST-tagged K-Ras mutant to (ii) a FRET acceptor (e.g., anti-6His-XL665) bound to a His-tagged hSOS1.
(§2) The assay buffer can contain ˜5 mM HEPES pH 7.4, ˜150 mM NaCl, ˜1 mM DTT, 0.05% BSA and 0.0025% (v/v) Igepal. A Ras working solution is prepared in an assay buffer containing typically a suitable amount of the protein construct (e.g., GST-tagged K-Ras mutant) and the FRET donor (e.g., antiGST-Eu (K) from Cisbio, France). A SOS1 working solution is prepared in an assay buffer containing suitable amount of the protein construct (e.g., His-hSOS1) and the FRET acceptor (e.g., anti-6His-XL665 from Cisbio, France). A suitable amount of the protein construct will depend on the range of activity or range of IC50 values being detected or under investigation. For detecting an IC50 within a range of 500 nM, the protein constructs of the same range of molarity can be utilized.
(§3) A fixed volume of DMSO with or without test compound is transferred into a 384-well plate. Ras working solution is added to all wells of the test plate. SOS1 working solution is added to all wells except for those that are subsequently filled with inhibitor control solution. Upon incubation for about 10 minutes or longer, the fluorescence is measured with a M1000Pro plate reader (Tecan) using HTRF detection (excitation 337 nm, emission 1:620 nm, emission 2:665 nm). Compounds are tested in duplicate at different concentrations (for example, 10 μM, 2.5 μM, 0.63 μM, 0.16 μM, 0.04 μM, 0.01 μM test compound). The ratiometric data (i.e., emission 2 divided by emission 1) is used to calculate IC50 values against Ras using GraphPad Prism (GraphPad software). Signaling output measured in terms of IC50 values can be obtained and a ratio of IC50 against one mutant relative to another mutant can be calculated.

KRAS WT = target: T2, KRAS WT (Homo sapiens, UniProt P01116); test: HTRF KRAS-SOS1 interaction assay, wildtype KRAS; settings: binned ≤2 μM / >2 μM, read-out: Inhibition of KRAS WT (IC50)
T2 construct: made in house; host or cells: E. coli, e.g. BL21 (DE3)
T2 sequence (P01116 1-188 isoform P01116-2): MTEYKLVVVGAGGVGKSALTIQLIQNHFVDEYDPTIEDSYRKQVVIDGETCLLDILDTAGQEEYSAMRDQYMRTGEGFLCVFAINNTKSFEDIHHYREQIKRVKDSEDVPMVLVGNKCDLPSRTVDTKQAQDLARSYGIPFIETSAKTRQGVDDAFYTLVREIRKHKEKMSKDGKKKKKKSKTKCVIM
Description: as §1, §2, §3

KRAS G12S = target: T3, KRAS G12S (Homo sapiens, UniProt P01116, G12S); test: HTRF KRAS-SOS1 interaction assay, KRAS G12S; settings: binned ≤2 μM / >2 μM, read-out: Inhibition of KRAS G12S (IC50)
T3 construct: made in house; host or cells: E. coli, e.g. BL21 (DE3)
T3 sequence (P01116 1-188 isoform P01116-2 G12S): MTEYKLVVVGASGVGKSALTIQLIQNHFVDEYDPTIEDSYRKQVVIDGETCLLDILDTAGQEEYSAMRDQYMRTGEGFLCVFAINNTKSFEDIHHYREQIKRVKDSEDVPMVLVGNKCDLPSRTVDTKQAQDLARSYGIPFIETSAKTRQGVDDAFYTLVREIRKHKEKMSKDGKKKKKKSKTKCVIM
Description: as §1, §2, §3

KRAS G12D = target: T4, KRAS G12D (Homo sapiens, UniProt P01116, G12D); test: HTRF KRAS-SOS1 interaction assay, KRAS G12D; settings: binned ≤2 μM / >2 μM, read-out: Inhibition of KRAS G12D (IC50)
T4 construct: made in house; host or cells: E. coli, e.g. BL21 (DE3)
T4 sequence (P01116 1-188 isoform P01116-2 G12D): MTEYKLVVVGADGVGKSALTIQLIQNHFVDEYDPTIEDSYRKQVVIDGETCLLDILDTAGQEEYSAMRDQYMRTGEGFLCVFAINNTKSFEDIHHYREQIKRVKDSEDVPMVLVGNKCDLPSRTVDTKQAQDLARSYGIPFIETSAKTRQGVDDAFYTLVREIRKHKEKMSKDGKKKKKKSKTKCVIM
Description: as §1, §2, §3

T1 sequence (P01116 1-188 isoform P01116-2 G12V): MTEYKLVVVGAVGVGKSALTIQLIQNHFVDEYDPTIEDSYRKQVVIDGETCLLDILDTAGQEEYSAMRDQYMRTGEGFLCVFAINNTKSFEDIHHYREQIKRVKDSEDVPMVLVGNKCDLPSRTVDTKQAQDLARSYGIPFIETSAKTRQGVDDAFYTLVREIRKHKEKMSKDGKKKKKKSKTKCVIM

| Compound | IC50 (KRAS G12V) | IC50 (KRAS WT) | IC50 (KRAS G12S) | IC50 (KRAS G12D) |
| --- | --- | --- | --- | --- |
| CCO/N=C1\CN2CCC[C@@]2(COc2nc3c4c(c(Cl)c(-c5ccc(F)c6sc(N)c(C#N)c56)c(F)c4n2)OCCN3[C@H](C)c2cccnc2N)C1 (single isomer, unassigned) [Compound 627] | ≤ 2 µM | ≤ 2 µM | ≤ 2 µM | – |
| C[C@H](c1cccnc1N)N1CCOc2c(C(F)(F)F)c(-c3cccc4sc(N)c(C#N)c34)c(F)c3nc(OC[C@@]45CCCN4C[C@H](F)C5)nc1c23 (single isomer, unassigned) [Compound 678] | ≤ 2 µM | ≤ 2 µM | ≤ 2 µM | – |
| CN(C)CC[C@H](c1cccnc1N)N1CCOc2c(C(F)(F)F)c(-c3ccc(F)c4sc(N)c(C#N)c34)c(F)c3nc(OC[C@@]45CCCN4C[C@H](F)C5)nc1c23 (single isomer, unassigned) [Compound 669] | ≤ 2 µM | ≤ 2 µM | ≤ 2 µM | – |
| C[C@H](c1cccnc1N)N1CCOc2c(Cl)c(-c3ccc(F)c4sc(N)c(C#N)c34)c(F)c3nc(OCC4(CN(C)C)CC4)nc1c23 (single isomer, unassigned) [Compound 638] | ≤ 2 µM | ≤ 2 µM | ≤ 2 µM | – |
| C[C@H](c1ccc(F)nc1N)N1CCOc2c(C(F)(F)F)c(-c3ccc(F)c4sc(N)c(C#N)c34)c(F)c3nc(OC[C@@]45CCCN4C[C@H](F)C5)nc1c23 (single isomer, unassigned) [Compound 628] | ≤ 2 µM | ≤ 2 µM | ≤ 2 µM | – |
| N#Cc1c(N)sc2c(F)ccc(-c3c(C(F)(F)F)c4c5c(nc(OC[C@@]67CCCN6C[C@H](F)C7)nc5c3F)N([C@H](CC3CCOC3)c3cccnc3N)CCO4)c12 (single isomer, unassigned) [Compound 717] | > 2 µM | > 2 µM | – | > 2 µM |
| C[C@H](c1cccnc1N)N1CCOc2c(C(F)(F)F)c(-c3cc(F)c(F)c4sc(N)c(C#N)c34)c(F)c3nc(OC[C@@]45CCCN4C[C@H](F)C5)nc1c23 (single isomer, unassigned) [Compound 863] | – | > 2 µM | > 2 µM | > 2 µM |
| N#Cc1c(N)sc2c(F)ccc(-c3c(Cl)c4c5c(nc(OC[C@@]67CCCN6C[C@H](F)C7)nc5c3F)N(C(C=C(F)F)c3cccnc3N)CCO4)c12 (single isomer, unassigned) [Compound 655] | ≤ 2 µM | ≤ 2 µM | ≤ 2 µM | – |
| CCO/N=C(\C)CCC[C@H](c1cccnc1N)N1CCOc2c(C(F)(F)F)c(-c3ccc(F)c4sc(N)c(C#N)c34)c(F)c3nc(OC[C@@]45CCCN4C[C@H](F)C5)nc1c23 (single isomer, unassigned) [Compound 720] | ≤ 2 µM | ≤ 2 µM | – | ≤ 2 µM |
| C=CC[C@H](c1cccnc1N)N1CCOc2c(C(F)(F)F)c(-c3ccc(F)c4sc(N)c(C#N)c34)c(F)c3nc(OC[C@@]45CCCN4C[C@H](F)C5)nc1c23 (single isomer, unassigned) [Compound 734] | > 2 µM | > 2 µM | – | ≤ 2 µM |
| C[C@H](c1cccnc1N)N1CCOc2c(C(F)(F)F)c(-c3ccc(F)c4sc(N)c(C#N)c34)c(F)c3nc(OC[C@@]45CCCN4C[C@H](F)C5)nc1c23 (single isomer, unassigned) [Compound 768] | – | – | ≤ 2 µM | – |
| N#Cc1c(N)sc2c(F)ccc(-c3c(C(F)(F)F)c4c5c(nc(OC[C@@]67CCCN6C[C@H](F)C7)nc5c3F)N([C@H](CC3CCOC3)c3cccnc3N)CCO4)c12 (single isomer, unassigned) [Compound 772] | ≤ 2 µM | ≤ 2 µM | – | ≤ 2 µM |
| N#Cc1c(N)sc2c(F)ccc(-c3c(C(F)(F)F)c4c5c(nc(OC[C@@]67CCCN6[C@H](COc6cnc(C(F)(F)F)cn6)CC7)nc5c3F)N([C@@H](c3cccnc3N)C(F)F)CCO4)c12 (single isomer, unassigned) [Compound 887] | – | ≤ 2 µM | – | – |
| C[C@H](c1cccnc1N)N1CCOc2c(C(F)(F)F)c(-c3ccc(F)c4sc(N)c(C#N)c34)c(F)c3nc(OC[C@@]45CCCN4C[C@H](F)C5)nc1c23 (single isomer, unassigned) [Compound 757] | ≤ 2 µM | ≤ 2 µM | – | ≤ 2 µM |
| CCO/N=C(\C)CCC[C@H](c1cccnc1N)N1CCOc2c(C(F)(F)F)c(-c3ccc(F)c4sc(N)c(C#N)c34)c(F)c3nc(OC[C@@]45CCCN4C[C@H](F)C5)nc1c23 (single isomer, unassigned) [Compound 859] | > 2 µM | > 2 µM | – | > 2 µM |
| CCC(c1cccnc1N)N1CCOc2c(Cl)c(-c3ccc(F)c4sc(N)c(C#N)c34)c(F)c3nc(OC[C@@]45CCCN4C[C@H](F)C5)nc1c23 (mixture of isomers) [Compound 844, 2-amino-4-(4-(1-(2-aminopyridin-3-yl)propyl)-8-chloro-10-fluoro-2-(((2R,7aS)-2-fluorotetrahydro-1H-pyrrolizin-7a(5H)-yl)methoxy)-5,6-dihydro-4H-[1,4]oxazepino[5,6,7-de]quinazolin-9-yl)-7-fluorobenzo[b]thiophene-3-carbonitrile] | – | – | – | ≤ 2 µM |
| Cc1cnc(N)c([C@@H](C)N2CCOc3c(C(F)(F)F)c(-c4ccc(F)c5sc(N)c(C#N)c45)c(F)c4nc(OC[C@@]56CCCN5C[C@H](F)C6)nc2c34)c1 (single isomer, unassigned) [Compound 861] | – | > 2 µM | > 2 µM | > 2 µM |
| N#Cc1c(N)sc2c(F)ccc(-c3c(Cl)c4c5c(nc(OC[C@@]67CCCN6C[C@H](F)C7)nc5c3F)N(C(c3cccnc3N)C(F)F)CCO4)c12 (single isomer, unassigned) [Compound 786] | – | – | – | ≤ 2 µM |
| N#Cc1c(N)sc2c(F)ccc(-c3c(C(F)(F)F)c4c5c(nc(OC[C@@]67CCCN6C[C@H](F)C7)nc5c3F)N([C@H](CCC3CCC3)c3cccnc3N)CCO4)c12 (single isomer, unassigned) [Compound 745] | – | ≤ 2 µM | – | ≤ 2 µM |
| N#Cc1c(N)sc2c(F)ccc(-c3c(C(F)(F)F)c4c5c(nc(OC[C@@]67CCCN6C[C@H](F)C7)nc5c3F)N([C@H](CC3CC(F)(F)C3)c3cccnc3N)CCO4)c12 (single isomer, unassigned) [Compound 703] | – | – | – | ≤ 2 µM |
| N#Cc1c(N)sc2c(F)ccc(-c3c(C(F)(F)F)c4c5c(nc(OC[C@@]67CCCN6C[C@H](F)C7)nc5c3F)N([C@H](CC3CCOCC3)c3cccnc3N)CCO4)c12 (single isomer, unassigned) [Compound 824] | – | – | – | ≤ 2 µM |
| N#Cc1c(N)sc2c(F)ccc(-c3c(C(F)(F)F)c4c5c(nc(OC[C@@]67CCCN6C[C@H](F)C7)nc5c3F)N([C@H](CC3CCOC3)c3cccnc3N)CCO4)c12 (single isomer, unassigned) [Compound 911] | ≤ 2 µM | ≤ 2 µM | – | ≤ 2 µM |
| C[C@H](c1cccnc1N)N1CCOc2c(Cl)c(-c3cccc4sc(N)c(C#N)c34)c(F)c3nc(OC[C@@]45CCCN4C[C@H](F)C5)nc1c23 (single isomer, unassigned) [Compound 823] | – | – | – | ≤ 2 µM |
| CO/N=C1\CN2CCC[C@@]2(COc2nc3c4c(c(Cl)c(-c5ccc(F)c6sc(N)c(C#N)c56)c(F)c4n2)OCCN3[C@H](C)c2cccnc2N)C1 (single isomer, unassigned) [Compound 898] | – | – | – | ≤ 2 µM |
| CC(c1cccnc1N)N1CCOc2c(Cl)c(-c3ccc(F)c4sc(N)c(C#N)c34)c(F)c3nc(OC[C@@]45CCCN4C[C@H](F)C5)nc1c23 (single isomer, unassigned) [Compound 820] | – | – | – | ≤ 2 µM |
| N#Cc1c(N)sc2c(F)ccc(-c3c(C(F)(F)F)c4c5c(nc(OC[C@@]67CCCN6[C@H](COc6cnc(C(F)(F)F)cn6)CC7)nc5c3F)N([C@@H](c3cccnc3N)C(F)F)CCO4)c12 (single isomer, unassigned) [Compound 882] | ≤ 2 µM | – | ≤ 2 µM | ≤ 2 µM |
| N#Cc1c(N)sc2c(F)ccc(-c3c(C(F)(F)F)c4c5c(nc(OC[C@@]67CCCN6C[C@H](F)C7)nc5c3F)N([C@H](CCC3COCCO3)c3cccnc3N)CCO4)c12 (single isomer, unassigned) [Compound 701] | – | – | – | ≤ 2 µM |
